The source of these data is patent publication US20160304461A1, “QUINOLONE COMPOUND AND PHARMACEUTICAL COMPOSITION” (OTSUKA PHARMACEUTICAL CO., LTD., priority 2007, published 2016).

Structures are written as SMILES.

The test system of series [1] is human neuroblastoma cell lines SH-SY5Y. Kind of series: Improvement of mitochondrial dysfunction in MPP+-treated SH-SY5Y cells (Alamar Blue mitochondrial oxidation reduction activity). Format: cell-based. As to conditions: SH-SY5Y cells in 1.5 mM MPP+ medium, relative to cells in DMSO alone = 100%, read-out: Fluorescence Intensity (%); for activity at 0.01 µg/mL: test compound 0.01 μg/ml; for activity at 0.03 µg/mL: test compound 0.03 μg/ml; for activity at 0.1 µg/mL: test compound 0.1 μg/ml; for activity at 0.3 µg/mL: test compound 0.3 μg/ml; for activity at 1 µg/mL: test compound 1 μg/ml. The procedure:
Evaluation of Improvement of Mitochondrial Dysfunction using Human Neuroblastoma Cell Lines SH-SY5Y Treated with 1-methyl-4-phenylpyridinium (MPP^+)
In human neuroblastoma cell lines SH-SY5Y in which mitochondrial activity was injured by MPP^+ treatment (Bollimuntha S. et al., J Biol Chem, 280, 2132-2140 (2005) and Shang T. et al., J Biol Chem, 280, 34644-34653 (2005)), improvement of the mitochondrial dysfunction was evaluated on the basis of the measurement value of the mitochondrial oxidation reduction activity using Alamar Blue fluorescent dye after the compound addition (Nakai M. et. al, Exp Neurol, 179, 103-110 (2003)).
The human neuroblastoma cell lines SH-SY5Y were cultured in Dulbecco's Modified Eagle's Medium containing 10% fetal bovine serum (DMEM containing 50 units/ml penicillin and 50 μg/ml streptomycin as antibiotics) at 37° C. in the presence of 5% carbon dioxide. Cells were scattered on a poly-D-lysine-coated 96-well black plate at a concentration of 3-6×10^4 cells/cm^2 (medium amount: 100 μl/well), and cultured in the above medium for two days. Further, the medium was changed to a DMEM containing a 1% N2 supplement (N2-DMEM) or to a medium (100 μl/well) in which 1.5 mM MPP^+ was dissolved. The cells were cultured therein for 39 to 48 hours, and then subjected to a mitochondrial oxidation reduction activity measurement system. A sample compound that had been previously dissolved in dimethyl sulfoxide (DMSO) was diluted with N2-DMEM, and added in a volume of 10 μl/well 24 hours before the activity measurement (final compound concentration: 0.01 to 1 μg/ml).
After removal of the medium by suction, a balanced salt solution containing 10% Alamar Blue (154 mM sodium chloride, 5.6 mM potassium chloride, 2.3 mM calcium chloride, 1.0 mM magnesium chloride, 3.6 mM sodium bicarbonate, 5 mM glucose, 5 mM HEPES, pH 7.2) was added in a volume of 100 μl/well, and reacted in an incubator at 37° C. for 1 hour. The fluorescent intensity was detected using a fluorescence detector (a product of Hamamatsu Photonics K.K., excitation wavelength 530 nm, measurement wavelength 580 nm) to thereby measure the mitochondrial oxidation reduction activity.
The fluorescent intensity of the well of the cells cultured in a medium containing MPP^+ and in each of the sample compounds was relatively evaluated based on a 100% fluorescent intensity of the well of the cells cultured in a medium containing DMSO alone (final concentration: 0.1%).
For orientation: Alamar Blue is a resazurin reagent that responds to reducing activity.

As usually defined, the melting point is the temperature of the solid-liquid transition. Take `COc1ccc(-c2c(C)[nH]c3c(OCC4CC4)ccc(F)c3c2=O)cc1` [Example 47, 8-Cyclopropylmethoxy-5-fluoro-3-(4-methoxyphenyl)-2-methyl-1H-quinolin-4-one]: the melting point was in the range of 167 to 169 °C. For the same molecule, in series [1], the activity at 0.01 µg/mL turned out to be 51%, the activity at 0.03 µg/mL stood at 58%, the activity at 0.1 µg/mL turned out to be 71% and the activity at 0.3 µg/mL turned out to be 73%. Further, the activity at 1 µg/mL in series [1] turned out to be 82%.

`CCCOc1ccc(F)c2c(=O)c(-c3ccc(OC)cc3)cn(CC)c12` [Example 92, 1-Ethyl-5-fluoro-3-(4-methoxyphenyl)-8-propoxy-1H-quinolin-4-one] came in with a melting point of 123 to 125 °C. In addition, in series [1], the activity at 0.01 µg/mL is 63%, the activity at 0.03 µg/mL was 75%, the activity at 0.1 µg/mL was determined as 77% and the activity at 0.3 µg/mL turned out to be 69%. The activity at 1 µg/mL in series [1] is 55%.

On to `CCCOc1ccc(F)c2c(=O)c(-c3cccs3)c[nH]c12` [Example 59, 5-Fluoro-8-propoxy-3-thiophen-2-yl-1H-quinolin-4-one], for which the melting point fell in the range of 211 to 213 °C. Moreover, in series [1], the activity at 0.01 µg/mL was found to be 53%, the activity at 0.03 µg/mL turned out to be 56%, the activity at 0.1 µg/mL was determined as 67% and the activity at 0.3 µg/mL came out at 66%. Besides, in series [1], the activity at 1 µg/mL was 54%.

Turning to `CCCOc1cc(F)c(F)c2c(=O)c(-c3ccc(OC)cc3)c[nH]c12` [Example 21, 5,6-Difluoro-3-(4-methoxyphenyl)-8-propoxy-1H-quinolin-4-one], the melting point was in the range of 198 to 200 °C. Besides, in series [1], the activity at 0.01 µg/mL turned out to be 52%, the activity at 0.03 µg/mL is 59%, the activity at 0.1 µg/mL amounted to 63% and the activity at 0.3 µg/mL stood at 74%. The activity at 1 µg/mL in series [1] came out at 57%.

In turn, `CCCN(C)c1ccc(F)c2c(=O)c(-c3ccc(OC)cc3)c[nH]c12` [Example 30, 5-Fluoro-3-(4-methoxyphenyl)-8-(N-methyl-N-propylamino)-1H-quinolin-4-one] gave a melting point of 145 to 146 °C. For the same molecule, in series [1], the activity at 0.01 µg/mL was 50%, the activity at 0.03 µg/mL amounted to 54%, the activity at 0.1 µg/mL is 69% and the activity at 0.3 µg/mL amounted to 64%. Further, the activity at 1 µg/mL in series [1] came to 56%.

In the case of `CCCOc1ccc(F)c2c(=O)c(-c3ccc(SC)cc3)c[nH]c12` [Example 38, 5-Fluoro-3-(4-methylsulfanylphenyl)-8-propoxy-1H-quinolin-4-one], the melting point fell in the range of 198 to 199 °C. Also, in series [1], the activity at 0.01 µg/mL came to 66%, the activity at 0.03 µg/mL stood at 67%, the activity at 0.1 µg/mL was found to be 86% and the activity at 0.3 µg/mL was found to be 81%. The activity at 1 µg/mL in series [1] worked out at 78%.

`COCCN(C)c1ccc(F)c2c(=O)c(-c3ccc(OC)cc3)c[nH]c12.Cl` [Example 34, 5-Fluoro-8-[N-(2-methoxyethyl)-N-methylamino]-3-(4-methoxyphenyl)-1H-quinolin-4-one hydrochloride] displayed a melting point of 100 to 101 °C. Further, in series [1], the activity at 0.01 µg/mL was 69%, the activity at 0.03 µg/mL worked out at 74%, the activity at 0.1 µg/mL was 77% and the activity at 0.3 µg/mL was found to be 78%. Moreover, the activity at 1 µg/mL in series [1] was found to be 87%.

`COCCOc1ccc(F)c2c(=O)c(-c3ccc(OC)cc3)c[nH]c12` [Example 36, 5-Fluoro-8-(2 methoxyethoxy)-3-(4-methoxyphenyl)-1H-quinolin-4-one] returned a melting point of 142 to 144 °C. Also, in series [1], the activity at 0.01 µg/mL was 63%, the activity at 0.03 µg/mL was 65%, the activity at 0.1 µg/mL was 74% and the activity at 0.3 µg/mL was 71%. Moreover, the activity at 1 µg/mL in series [1] stood at 91%.

`CCCOc1ccc(F)c2c(=O)c(-c3ccc(OC)c(OC)c3)c[nH]c12` [Example 62, 3-(3,4-Dimethoxyphenyl)-5-fluoro-8-propoxy-1H-quinolin-4-one] had a melting point of 217 to 218 °C. Also, in series [1], the activity at 0.01 µg/mL is 66%, the activity at 0.03 µg/mL was found to be 62%, the activity at 0.1 µg/mL was determined as 79% and the activity at 0.3 µg/mL came to 84%. In series [1], the activity at 1 µg/mL was 80%.

For the molecule `COc1ccc(-c2c[nH]c3c(-c4ccsc4)ccc(F)c3c2=O)cc1` [Example 87, 5-Fluoro-3-(4-methoxyphenyl)-8-thiophen-3-yl-1H-quinolin-4-one], the melting point fell in the range of 183 to 184 °C. Also, in series [1], the activity at 0.01 µg/mL amounted to 63%, the activity at 0.03 µg/mL worked out at 66%, the activity at 0.1 µg/mL came out at 79% and the activity at 0.3 µg/mL worked out at 63%. For the same molecule, the activity at 1 µg/mL in series [1] worked out at 51%.

Molecule `CCCOc1ccc(F)c2c(=O)c(-c3ccc(OC(F)(F)F)cc3)c(C)[nH]c12` [Example 70, 5-Fluoro-2-methyl-8-propoxy-3-(4-trifluoromethoxyphenyl)-1H-quinolin-4-one] showed a melting point of 167 to 168 °C. In series [1], the activity at 0.01 µg/mL was determined as 56%, the activity at 0.03 µg/mL was found to be 57%, the activity at 0.1 µg/mL is 67% and the activity at 0.3 µg/mL worked out at 71%. Further, the activity at 1 µg/mL in series [1] was found to be 63%.

The molecule `CCn1cc(-c2ccc(OC)cc2)c(=O)c2c(F)ccc(OCC3CC3)c21` [Example 66, 8-Cyclopropylmethoxy-1-ethyl-5-fluoro-3-(4-methoxyphenyl)-1H-quinolin-4-one] displayed a melting point of 150 to 152 °C. In addition, in series [1], the activity at 0.01 µg/mL stood at 66%, the activity at 0.03 µg/mL came out at 72%, the activity at 0.1 µg/mL was 83% and the activity at 0.3 µg/mL is 77%. In series [1], the activity at 1 µg/mL was 60%.

`CCCOc1ccc(F)c2c(=O)c(-c3ccc(OC)cc3)cn(CC3CC3)c12` [Example 94, 1-Cyclopropylmethyl-5-fluoro-3-(4-methoxyphenyl)-8-propoxy-1H-quinolin-4-one] yielded a melting point of 60 to 62 °C. In series [1], the activity at 0.01 µg/mL was 56%, the activity at 0.03 µg/mL is 67%, the activity at 0.1 µg/mL stood at 69% and the activity at 0.3 µg/mL was found to be 59%. In series [1], the activity at 1 µg/mL came to 41%.

`CCCOc1ccc(F)c2c(=O)c(-c3ccc(CC)cc3)c(C)[nH]c12` [Example 71, 3-(4-Ethylphenyl)-5-fluoro-2-methyl-8-propoxy-1H-quinolin-4-one] came in with a melting point of 221 to 222 °C. Moreover, in series [1], the activity at 0.01 µg/mL was found to be 56%, the activity at 0.03 µg/mL came to 61%, the activity at 0.1 µg/mL stood at 73% and the activity at 0.3 µg/mL came to 78%. Besides, the activity at 1 µg/mL in series [1] was found to be 72%.

In turn, `CCCOc1ccc(F)c2c(=O)c(-c3ccc(OC)nc3)c[nH]c12` [Example 63, 5-Fluoro-3-(6-methoxypyridin-3-yl)-8-propoxy-1H-quinolin-4-one] came in with a melting point of 215 to 216 °C. Also, in series [1], the activity at 0.01 µg/mL amounted to 58%, the activity at 0.03 µg/mL came out at 65%, the activity at 0.1 µg/mL is 74% and the activity at 0.3 µg/mL came out at 75%. Besides, in series [1], the activity at 1 µg/mL came out at 85%.
